Measurements from US11944622B2 (Annapurna Bio, Inc., priority 2018, dated 2024).

Each compound was assayed against T1, APJ Receptor (Homo sapiens, UniProt P35414) (assay: APJ cAMP assay (DiscoverX enzyme fragment complementation; inhibition of forskolin-stimulated cAMP)). Conditions: CHO-K1 cell line stably expressing the APJ Receptor; EC80 forskolin; 30 minutes at 37° C.; read-out: Potency Range (APJ cAMP EC50).
T1 sequence (P35414 1-380): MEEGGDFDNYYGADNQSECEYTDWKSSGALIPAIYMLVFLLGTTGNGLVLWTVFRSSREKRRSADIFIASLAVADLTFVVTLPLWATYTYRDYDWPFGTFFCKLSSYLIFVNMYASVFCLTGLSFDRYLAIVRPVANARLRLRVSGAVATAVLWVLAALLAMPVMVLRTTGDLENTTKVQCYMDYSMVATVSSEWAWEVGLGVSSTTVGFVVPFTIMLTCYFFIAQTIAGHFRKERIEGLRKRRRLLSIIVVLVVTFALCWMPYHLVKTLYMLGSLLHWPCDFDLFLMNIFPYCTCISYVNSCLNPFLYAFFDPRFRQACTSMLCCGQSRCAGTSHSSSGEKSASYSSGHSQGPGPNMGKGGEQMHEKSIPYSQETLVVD
Type: cell-based
Source text: Activation of APJ receptor is known to inhibit forskolin-stimulated cyclic AMP (cAMP) production in cells in a pertussis toxin-sensitive manner which indicates primary coupling to the GαI subunit of the G protein heterotrimeric complex. In addition to signaling through G protein and inhibition of cAMP, APJ receptor activation also results in β-arrestin recruitment, receptor internalization and activation of extracellular-regulated kinases (ERKs).
In order to optimize functional activity directed toward Gi coupling we utilized a CHO-K 1 cell line developed by DiscoverX stably expressing the APJ Receptor. Cells expressing APJR receptor were plated in a 384-well microtiter plates and incubated overnight at 37° C. with 5% CO2 to allow the cells to attach and grow. Media was then aspirated from the cells and replaced with 15 uL 2:1 Hanks Balanced Salt Solution (HBSS)/10 mM Hepes:cAMP XS+Ab reagent. Five microliters (5 uL) of previously generated compound sample stocks at 4× final concentration in assay buffer containing 4× EC80 forskolin were then added to the cells and allowed to incubate at 37° C. for 30 minutes.
After incubation the assay signal was generated using a technology termed enzyme fragment complementation (EFC). In EFC the enzyme B-galactosidase is split into two complementary portions (EA and ED). The fragment ED is fused to cAMP and in the assay format competes with endogenous cAMP for binding to a cAMP specific antibody. Activated B-Gal is formed when exogenous EA fragment binds to free ED-cAMP (not bound to cAMP specific antibody). Activated enzyme levels are detected through conversion of B-gal chemiluminescent substrate which generates a detectable luminescence signal and read on standard microtiter plate.
The methodology for detection of cAMP using EFC requires incubation with 20 uL of cAMP XS+ED/CL lysis cocktail for one hour followed by incubation with 20 uL cAMP XS+EA reagent for three hours at room temperature. Microplates were read following signal generation with a PerkinElmer Envision instrument utilizing chemiluminescent signal detection.
Compound activity was analyzed using CBIS data analysis suite (ChemInnovation, CA). Percentage activity was calculated using the following formula: % Activity=100%×(1−(mean RLU of test sample−mean RLU of Max control)/(mean RLU of vehicle control−mean RLU of Max control))

Q: Which EC50 does the source give for `CCOc1cccc(-c2nc3nc(NS(=O)(=O)CC4(O)CC4)cnc3n2-c2c(OC)cccc2OC)n1` [Example 62, N-(1-(2,6-dimethoxyphenyl)-2-(6-ethoxypyridin-2-yl)-1H-imidazo[4,5-b]pyrazin-5-yl)-1-(1-hydroxycyclopropyl)methanesulfonamide] here?
A: The EC50 was 1 to 100 nM.

Q: For `CCOc1cccc(-c2nc3nc(C)c(NS(C)(=O)=O)nc3n2-c2c(OC)cccc2OC)n1` [Example 87, N-(1-(2,6-Dimethoxyphenyl)-2-(6-ethoxypyridin-2-yl)-5-methyl-1H-imidazo[4,5-b]pyrazin-6-yl)methanesulfonamide], which EC50 is on record?
A: Its EC50 is 1 to 100 nM.

Q: With `CCOc1cccc(-c2nc3nnc(NS(=O)(=O)Cc4ccc(C)cn4)cc3n2-c2c(OC)cccc2OC)n1` [Example 124, N-(7-(2,6-Dimethoxyphenyl)-8-(6-ethoxypyridin-2-yl)-7H-imidazo[4,5-c]pyridazinyl)-1-(5-methylpyridin-2-yl)methanesulfonamide] as the compound, how does the EC50 read?
A: Its EC50 is under 1 nM.

Q: `CCOc1cccc(-c2nc3ncc(NS(=O)(=O)[C@H]4C[C@@H](O)C4)nc3n2-c2c(OC)cccc2OC)n1` [Example 33, cis-N-(1-(2,6-dimethoxyphenyl)-2-(6-ethoxypyridin-2-yl)-1H-imidazo[4,5-b]pyrazin-6-yl)-3-hydroxycyclobutane-1-sulfonamide] was tested. Which EC50 did it give?
A: The EC50 was 1 to 100 nM.

Q: For `CCOc1cccc(-c2nc3nc(CC4CC4)c(NS(C)(=O)=O)nc3n2-c2c(OC)cccc2OC)n1` [Example 65, N-(5-(cyclopropylmethyl)-1-(2,6-dimethoxyphenyl)-2-(6-ethoxypyridin-2-yl)-1H-imidazo[4,5-b]pyrazin-6-yl)methanesulfonamide], which EC50 is on record?
A: Its EC50 is under 1 nM.

Q: For `CCOc1cccc(-c2nc3ncc(NS(C)(=O)=O)nc3n2-c2ncccc2OC)n1` [Example 49, N-(2-(6-ethoxypyridin-2-yl)-1-(3-methoxypyridin-2-yl)-1H-imidazo[4,5-b]pyrazin-6-yl)methanesulfonamide], which EC50 is on record?
A: Its EC50 is 100 to 10000 nM.

Q: For `CCOc1cccc(-c2nc3nc(N4CC(O)C4)c(NS(C)(=O)=O)nc3n2-c2c(OC)cccc2OC)n1` [Example 136, N-(1-(2,6-Dimethoxyphenyl)-2-(6-ethoxypyridin-2-yl)-5-(3-hydroxyazetidin-1-yl)-1H-imidazo[4,5-b]pyrazin-6-yl)methanesulfonamide], which EC50 is on record?
A: The EC50 was 100 to 10000 nM.

Q: For `CCOc1cccc(-c2nc3nc(Cl)c(NS(=O)(=O)C4CC4)nc3n2-c2c(OC)cccc2OC)n1` [Example 97, N-(5-Chloro-1-(2,6-dimethoxyphenyl)-2-(6-ethoxypyridin-2-yl)-1H-imidazo[4,5-b]pyrazin-6-yl)cyclopropanesulfonamide], which EC50 is on record?
A: The EC50 was 1 to 100 nM.

Q: Which EC50 does the source give for `CCOc1cccc(-c2nc3ncc(NS(=O)(=O)Cc4ncc(F)cn4)nc3n2-c2c(OC)cccc2OC)n1` [Example 79, N-(1-(2,6-dimethoxyphenyl)-2-(6-ethoxypyridin-2-yl)-1H-imidazo[4,5-b]pyrazin-6-yl)-1-(5-fluoropyrimidin-2-yl)methanesulfonamide] here?
A: The EC50 was under 1 nM.

Q: How did the EC50 turn out when `CCOc1cccc(-c2nc3ncc(NS(=O)(=O)[C@H]4CC[C@H](O)CC4)nc3n2-c2c(OC)cccc2OC)n1` [Example 39, trans-N-(1-(2,6-dimethoxyphenyl)-2-(6-ethoxypyridin-2-yl)-1H-imidazo[4,5-b]pyrazin-6-yl)-4-hydroxycyclohexane-1-sulfonamide] was run?
A: Its EC50 is under 1 nM.

Q: Which EC50 does the source give for `CCOc1cccc(-c2nc3nc(Cl)c(NS(=O)(=O)Cc4ccc(C)cc4F)nc3n2-c2c(OC)cccc2OC)n1` [Example 100, N-(5-Chloro-1-(2,6-dimethoxyphenyl)-2-(6-ethoxypyridin-2-yl)-1H-imidazo[4,5-b]pyrazin-6-yl)-1-(2-fluoro-4-methylphenyl)methanesulfonamide] here?
A: The EC50 was 1 to 100 nM.

Q: Which EC50 does the source give for `COc1cccc(OC)c1-n1c(-c2cncc(C)c2)nc2ncc(NS(C)(=O)=O)nc21` [Example 132, N-(1-(2,6-dimethoxyphenyl)-2-(5-methylpyridin-3-yl)-1H-imidazo[4,5-b]pyrazin-6-yl)methanesulfonamide] here?
A: Its EC50 is 100 to 10000 nM.

Q: For `CCOc1cccc(-c2nc3nnc(NS(=O)(=O)Cc4ncc(C)cn4)cc3n2-c2c(OC)cccc2OC)n1` [Example 126, N-(7-(2,6-Dimethoxyphenyl)-8-(6-ethoxypyridin-2-yl)-7H-imidazo[4,5-c]pyridazinyl)-1-(5-methylpyrimidin-2-yl)methanesulfonamide], which EC50 is on record?
A: Its EC50 is under 1 nM.

Q: Which EC50 does the source give for `CCOc1cccc(-c2nc3ncc(NS(=O)(=O)[C@H]4C[C@H](O)C4)nc3n2-c2c(OC)cccc2OC)n1` [Example 34, trans-N-(1-(2,6-dimethoxyphenyl)-2-(6-ethoxypyridin-2-yl)-1H-imidazo[4,5-b]pyrazin-6-yl)-3-hydroxycyclobutane-1-sulfonamide] here?
A: Its EC50 is 1 to 100 nM.

Q: For `CCOc1cccc(-c2nc3ncc(NS(=O)(=O)C4CCC4)nc3n2-c2c(OC)cccc2OC)n1` [Example 31, N-(1-(2,6-dimethoxyphenyl)-2-(6-ethoxypyridin-2-yl)-1H-imidazo[4,5-b]pyrazin-6-yl)cyclobutanesulfonamide], which EC50 is on record?
A: The EC50 was 1 to 100 nM.

Q: `CCOc1cccc(-c2nc3ncc(NS(=O)(=O)CC4CC4)nc3n2-c2c(OC)cccc2OC)n1` [Example 4, 1-cyclopropyl-N-(1-(2,6-dimethoxyphenyl)-2-(6-ethoxypyridin-2-yl)-1H-imidazo[4,5-b]pyrazin-6-yl)methanesulfonamide] was tested. Which EC50 did it give?
A: Its EC50 is 1 to 100 nM.

Q: How did the EC50 turn out when `CCOc1cccc(-c2nc3ncc(NC)nc3n2-c2c(OC)cccc2OC)n1` [Example 9, 1-(2,6-dimethoxyphenyl)-2-(6-ethoxypyridin-2-yl)-N-methyl-1H-imidazo[4,5-b]pyrazin-6-amine] was run?
A: Its EC50 is 1 to 100 nM.

Q: Which EC50 does the source give for `CCOc1cccc(-c2nc3ncc(NS(C)(=O)=O)nc3n2-c2c(OC)ccnc2OC)n1` (atropisomer, axis not shown) [Example 85, N-(1-(2,4-Dimethoxypyridin-3-yl)-2-(6-ethoxypyridin-2-yl)-1H-imidazo[4,5-b]pyrazin-6-yl)methanesulfonamide] here?
A: Its EC50 is 100 to 10000 nM.

Q: `CCOc1cccc(-c2nc3ncc(NS(=O)(=O)c4ccccn4)nc3n2-c2c(OC)cccc2OC)n1` [Example 23, N-(1-(2,6-dimethoxyphenyl)-2-(6-ethoxypyridin-2-yl)-1H-imidazo[4,5-b]pyrazin-6-yl)pyridine-2-sulfonamide] was tested. Which EC50 did it give?
A: Its EC50 is under 1 nM.

Q: With `CCOc1cccc(-c2nc3nc(Cl)c(NS(=O)(=O)Cc4ccc(C)c(F)c4)nc3n2-c2c(OC)cccc2OC)n1` [Example 107, N-(5-Chloro-1-(2,6-dimethoxyphenyl)-2-(6-ethoxypyridin-2-yl)-1H-imidazo[4,5-b]pyrazin-6-yl)-1-(3-fluoro-4-methylphenyl)methanesulfonamide] as the compound, how does the EC50 read?
A: The EC50 was under 1 nM.

Q: For `CCOc1cccc(-c2nc3ncc(NS(=O)(=O)C4CC4)nc3n2-c2c(OC)cccc2OC)n1` [Example 22, N-(1-(2,6-dimethoxyphenyl)-2-(6-ethoxypyridin-2-yl)-1H-imidazo[4,5-b]pyrazin-6-yl)cyclopropanesulfonamide], which EC50 is on record?
A: Its EC50 is 1 to 100 nM.

Q: How did the EC50 turn out when `CCOc1cccc(-c2nc3nnc(NS(=O)(=O)C4CC4)cc3n2-c2c(OC)cccc2OC)n1` [Example 119, N-(7-(2,6-Dimethoxyphenyl)-8-(6-ethoxypyridin-2-yl)-7H-imidazo[4,5-c]pyridazinyl)cyclopropanesulfonamide] was run?
A: The EC50 was 1 to 100 nM.

Q: Which EC50 does the source give for `CCOc1cccc(-c2nc3nc(Cl)c(NS(=O)(=O)Cc4ncccn4)nc3n2-c2c(OC)cccc2OC)n1` [Example 109, N-(5-Chloro-1-(2,6-dimethoxyphenyl)-2-(6-ethoxypyridin-2-yl)-1H-imidazo[4,5-b]pyrazin-6-yl)-1-(pyrimidin-2-yl)methanesulfonamide] here?
A: The EC50 was 1 to 100 nM.

Q: How did the EC50 turn out when `CCOc1cccc(-c2nc3ncc(C#Cc4ccccc4)nc3n2-c2c(OC)cccc2OC)n1` [Example 6, 1-(2,6-dimethoxyphenyl)-2-(6-ethoxypyridin-2-yl)-6-(phenylethynyl)-1H-imidazo[4,5-b]pyrazine] was run?
A: The EC50 was 100 to 10000 nM.

Q: How did the EC50 turn out when `CCOc1cccc(-c2nc3ncc(NS(=O)(=O)Cc4ccccc4)nc3n2-c2c(OC)cccc2OC)n1` [Example 3, N-(1-(2,6-dimethoxyphenyl)-2-(6-ethoxypyridin-2-yl)-1H-imidazo[4,5-b]pyrazin-6-yl)-1-phenylmethanesulfonamide] was run?
A: The EC50 was 1 to 100 nM.
